Data set [1] relates to mouse myoblast C2C12 cells. Put plainly: Oxygen consumption rate (OCR) assay with Seahorse XF96 or XF24, mitochondrial uncoupling. It counts as cell-based. Conditions: 10% fetal bovine serum, in the presence of oligomycin 2.5 μM, read-out: Cmin (minimal concentration to induce ATP synthase-independent OCR increase). From the text: By definition, mitochondrial uncoupling is the decoupling of mitochondrial electron transport chain activity (mitochondrial oxidation) from ATP synthesis by mitochondrial ATP synthase. Technically, mitochondrial uncoupling activity is defined by the ability of a chemical compound to induce oxygen consumption of cells or isolated mitochondria in the presence of a mitochondrial ATP synthase inhibitor such as oligomycin. Accordingly, we determined mitochondrial uncoupling activity by oxygen consumption rate (OCR) assay with a Seahorse XF96 or a Seahorse XF24 instrument following the vendor's instruction, using mouse myoblast C2C12 cells growing in medium containing 10% fetal bovine serum. […] The minimal concentration (Cmin) of each compound under which OCR is induced in the presence of oligomycin, was determined.

For data set [2], the system named is HFD-induced diabetic mouse model. The data set can be described thus: High-fat diet (HFD)-induced fatty liver and diabetic mouse model. Type of data set: in vivo. Conditions: HFD containing 600 ppm compound. From the text: To test the efficacy of compounds in treating type 2 diabetes in vivo, we used Compound 28 as an example, and determined its effect in reducing blood glucose, reducing blood insulin concentration, improving insulin sensitivity and reducing fatty liver in a clinically relevant mouse model, the HFD-induced fatty liver and diabetic model. C57B6/J male mice were fed HFD (60% calorie from fat) for 4 months, starting at age of 2 months, to induce high blood glucose, high blood insulin, and insulin tolerance symptoms of type 2 diabetes as well as fatty liver. The mice then either continued with HFD or with HFD containing 600 ppm Compound 28. Blood glucose, blood insulin levels were measured and glucose tolerance assay was performed to measure insulin sensitivity. The mice were sacrificed and the effect of Compound 28 on fatty liver development was evaluated by comparing the liver weight.

Data set [3] has as its system Human colon cancer HCT116 cell line and human lung cancer cell line H1299. The data set can be described thus: Cancer cell growth inhibition, NCI protocol, SRB staining. Type of data set: cell-based. Conditions: 48 h incubation, HCT116 and H1299 cells, read-out: GI50, 50% growth inhibition activity. The method, then: The effect of example compounds on cancer cell growth was evaluated. The cell growth inhibition assays were performed using a protocol standardized by National Cancer Institute (NCI) for evaluating anti-cancer drugs (https://dtp.cancer.gov/discovery_development/nci-60/methodology.htm). Human colon cancer HCT116 cell line and human lung cancer cell line H1299 were used for the assays. The human tumor cells were inoculated into 96 well microtiter plates. After cell inoculation, the microtiter plates were incubated for cell growth for 24 h prior to addition of compounds. After 24 h, two plates of each cell line were fixed in situ with TCA, to represent a measurement of the cell population for each cell line at the time of compound addition (Tz). Test compounds were solubilized in dimethyl sulfoxide, At the time of test compound addition, five 10-fold or ½ log serial dilutions were made to provide a total of five test compound concentrations plus control. Aliquots of 100 μl of these different test compound dilutions were added to the appropriate microtiter wells already containing 100 μl of medium, resulting in the required final test compound concentrations. Following test compound addition, the plates were incubated for an additional 48 h. The assay was terminated by the addition of cold TCA, Cells were fixed in situ with 50 μl of cold 50% (w/v) TCA (final concentration, 10% TCA), washed five times with tap water and air dried. Sulforhodamine B (SRB) solution (100 ul) at 0.4% (w/v) in 1% acetic acid was added to each well, and plates were incubated for 10 minutes at room temperature. After staining, unbound dye was removed by washing five times with 1% acetic acid and the plates were air dried. […] Using the seven absorbance measurements [time zero, (Tz), control growth, (C), and test growth in the presence of compound at the five concentration levels (Ti)], the percentage growth was calculated at each of the test compound concentrations levels.
Background: Sulforhodamine B stains cellular protein and so reports cell mass.

Data set [4] relates to Panc 2 cells injected into the spleen of NOD-scid mice. The data set can be described thus: Hepatic metastasis of pancreatic cancer mouse model. It counts as in vivo. Particulars: chow containing 750 ppm compound. The method, then: The in vivo anti-cancer efficacy of an example compound, Compound 28, was examined using a well-established hepatic metastasis of pancreatic cancer mouse model. The mouse pancreatic cancer cells, Panc 2 cells (0.25 million cells), were injected into the spleen of immune compromised NOD-scid mice. The mice were randomized to two groups (n=6 each group), one group was fed normal chow, the second group was fed chow containing 750 ppm Compound 28. Three weeks later, mice were sacrificed and the hepatic metastasis of the pancreatic cancer was observed (FIGS. 5A-5B) and quantified (FIGS. 6A-6B) in control and Compound 28 treated mice.

Data set [5] has as its system NIH-3T3 cells, or HepG2 cells. The data set can be described thus: Mitochondrial membrane potential assay, TMRE staining. Conditions: 2 h; two hours treatment, TMRE 100 nM; read-out: EC50, mitochondrial membrane potential reduction (TMRE staining reduced to about 50%). Type of data set: cell-based. The protocol:
Mitochondrial uncoupling may also lead to a reduction of mitochondrial membrane potential. We performed mitochondrial membrane potential assay using TMRE (tetramethylrhodamine ethyl ester) staining method with cultured mammalian cells, the NIH-3T3 cells, or HepG2 cells. Cells were seeded onto 6-well plates and cultured in DMEM medium supplemented with 10% fetal bovine serum and 2 mM glutamine. Cells were allowed to grow to logarithmic growth phase prior to experiments. The cells were treated with each individual compound at various concentrations for two hours, followed by staining with TMRE at final concentration of 100 nM for 15 minutes. The cells were then washed once with PBS, and examined under fluorescence microscopy. Cells treated with various concentrations of niclosamide ethanolamine were used as positive control. Reduction of mitochondrial TMRE staining was estimated as a quantification of mitochondrial uncoupling activity. […] The following table (Table II) summarizes the activity of individual compounds in reducing mitochondrial membrane potential in cultured mammalian cells.

For data set [6], the system named is mouse pancreatic cancer cell Panc 2 cells, or human pancreatic cancer Panc 1 cells. The data set can be described thus: Cell cycle progression (G0/G1 arrest), PI staining, flow cytometry. It counts as cell-based. Conditions: 48 h treatment. The protocol: The effect of example compounds on cell cycle progression was analyzed. The tumor cells, mouse pancreatic cancer cell Panc 2 cells, or human pancreatic cancer Panc 1 cells, were treated with the individual compounds at concentrations that were efficacious for mitochondrial uncoupling for 48 h, whereas the control group was treated with vehicle DMSO. Cells were then fixed with ice-cold 70% ethanol on ice for 30 minutes. After that, 5 μl of propidium iodide (PI) (Sigma, P 4170, 1 mg/ml) solution and 50 μl of RNAse A (Sigma, R-4875) solutions were added to the fixed cells, which were then kept for 30 minutes in the dark at room temperature. The cell cycle profile of the cells was analyzed by flow cytometry. […] Table IV below summarizes the activity of other example compounds on inducing G0/G1 cell cycle arrest.
On the technique in general: Flow cytometry measures light scatter and fluorescence of single cells or particles in a stream.

In the next data set the test system is Cancer cells. Put plainly: Clonogenicity of cancer cells, colony counting. It counts as cell-based. Conditions: 200 cells per well, 10 days. The method, then: The impact of example compounds on clonogenicity was analyzed. Cancer cells were plated in 6-well plates at 200 cells per well. Cells were treated with individual compounds at various concentrations. Cells were maintained with changes of the medium plus compounds for 10 days. The colonies were then fixed in 1:3 Acetic acid—Methanol solution for 5 minutes, stained with 0.02% crystal violet for 20 minutes and counted.

The structures appear in SMILES notation. pEC50: −log10 of the molar value. Some results are limits rather than exact numbers.

What is called GI50 is the concentration giving 50% growth inhibition. As for `Cc1cc(Cl)cc(C(=O)Nc2nc3ccc(C(F)(F)F)cc3s2)c1O` [Compound 28, 5-Chloro-2-hydroxy-3-methyl-N-(6-(trifluoromethyl)benzo[d]thiazol-2-yl)benzamide ethanolamine], in data set [1], the minimal effective concentration was below 10 µM. Further, in data set [2] (C57B6/J male mice), the blood glucose concentration entry is “markedly reduced”, the blood insulin concentration entry is recorded as “markedly reduced”, the “fatty liver weight caused by high fat diet” value is given as “reduced fatty liver weight” and the insulin sensitivity result is “improves insulin sensitivity”. In addition, the plasma concentration entry in data set [2] is given as “at an efficacious concentration that uncouples mitochondria”. The GI50 in data set [3] was below 10 µM. Moreover, in data set [4], the blood plasma concentrations result was “in the range of efficacious concentration for uncoupling mitochondria”. Further, in data set [4] (three weeks), the hepatic tumor metastasis result is “little or no hepatic tumor metastasis”, the metastatic tumor volume result was “dramatically reduced” and the “number of metastatic tumor nodules” value is “dramatically reduced”.

The term pEC50 denotes −log10 of the EC50, conventionally taken in molar units. As for `Cc1cc(Cl)cc(C(=O)Nc2nc3c(F)cc(F)cc3s2)c1O` [Compound 40, 5-Chloro-N-(4,6-difluorobenzo[d]thiazol-2-yl)-2-hydroxy-3-methylbenzamide], the minimal effective concentration in data set [1] is below 10 µM. Also, the pEC50 in data set [5] was above 5.00. Also, the GI50 in data set [3] was below 10 µM.

As for `Cc1cc(Cl)cc(C(=O)Nc2nc3c(C(F)(F)F)cccc3s2)c1O` [Compound 31, 5-Chloro-2-hydroxy-3-methyl-N-(4-(trifluoromethyl)benzo[d]thiazol-2-yl)benzamide], the minimal effective concentration in data set [1] was below 10 µM. In addition, in data set [3], the GI50 is below 10 µM.

Take `CC(C)c1cc(Cl)cc(C(=O)Nc2nc3ccc(C(F)(F)F)cc3s2)c1O` [Compound 38, 5-Chloro-2-hydroxy-3-isopropyl-N-(6-(trifluoromethyl)benzo[d]thiazol-2-yl)benzamide]: in data set [1], the minimal effective concentration is below 10 µM. In addition, the pEC50 in data set [5] is above 5.00. Moreover, in data set [3], the GI50 is below 10 µM. The “effective concentration that can arrest cell cycle at G0/G1 phase” value in data set [6] is recorded as “*** (*** <10 μM)”. Moreover, the “IC95, Concentration that reduces clonogenicity by 95%” value in the data set with Cancer cells is “*** (*** <10 μM)”.

In the case of `O=C(Nc1nc2c(C(F)(F)F)cc(F)cc2s1)c1cc(Cl)ccc1O` [Compound 24, 5-Chloro-N-(6-fluoro-4-(trifluoromethyl)benzo[d]thiazol-2-yl)-2-hydroxybenzamide], the minimal effective concentration in data set [1] is below 10 µM. For the same molecule, in data set [5], the pEC50 is above 5.00. In addition, the GI50 in data set [3] is below 10 µM.

With `Cc1cc(Cl)cc(C(=O)Nc2nc3ccc(C(F)(F)F)cc3s2)c1O` [Compound 1, 5-Chloro-2-hydroxy-3-methyl-N-(6-(trifluoromethyl)benzo[d]thiazol-2-yl)benzamide], the “effective concentration that can arrest cell cycle at G0/G1 phase” value in data set [6] is “*** (*** <10 μM)”. For the same molecule, in the data set on Cancer cells, the “IC95, Concentration that reduces clonogenicity by 95%” value is listed as “*** (*** <10 μM)”.

`CCc1cc(Cl)cc(C(=O)Nc2nc3ccc(C(F)(F)F)cc3s2)c1O` [Compound 27, 5-Chloro-3-ethyl-2-hydroxy-N-(6-(trifluoromethyl)benzo[d]thiazol-2-yl)benzamide]: the minimal effective concentration in data set [1] was below 10 µM. Also, the pEC50 in data set [5] is above 5.00. Further, in data set [3], the GI50 is below 10 µM. In data set [6], the “effective concentration that can arrest cell cycle at G0/G1 phase” value is given as “*** (*** <10 μM)”. Moreover, the “IC95, Concentration that reduces clonogenicity by 95%” value in the data set on Cancer cells is listed as “*** (*** <10 μM)”.

Take `O=C(Nc1nc2c(F)cc(F)cc2s1)c1cc(Cl)ccc1O` [Compound 23, 5-Chloro-N-(4,6-difluorobenzo[d]thiazol-2-yl)-2-hydroxybenzamide]: the minimal effective concentration in data set [1] was below 10 µM. Also, the GI50 in data set [3] is below 10 µM.
